Assay results published in patent US12383520B2, “Compound and composition for use in the treatment of premenstrual syndrome and/or premenstrual dysphoric disorder” (SYNAPHARM […], priority 2019, dated 2025).

Experiments:
[1] = stability over time of dihydrate versus anhydrous form; assay type: physicochemical; settings: compared to non-dihydrate (anhydrous) magnesium N-acetyl-taurinate
[2] = treatment of premenstrual syndrome and/or premenstrual dysphoric disorder (reduction of symptoms); assay type: in vivo; settings: compared with other compounds, particularly other magnesium salts (like magnesium oxide)

In the case of magnesium N-acetyl-taurinate dihydrate, the stability over time [1] is reported as “increased as compared to non-dihydrate magnesium N-acetyl-taurinate”.
For magnesium N-acetyl-taurinate, the “effectiveness (reduction of symptoms) in the treatment of premenstrual syndrome and/or premenstrual dysphoric disorder” value [2] was “more effective (reduction of symptoms) than the other compounds”.
